Test [1] in a line: Test for initiator properties: photopolymerisation of HDDA with the acrylimide added as initiator. The conditions noted are these: approx. 6 mol-% imido groups in HDDA, 250-450 nm, 900 mW/cm^2; for DBC: double bond conversion from heat of polymerisation; for Rate: mean polymerisation rate of the mixture, means of multiple determinations; for tmax: time to exotherm maximum (maximum polymerisation rate). The source says: Dabei wurden die üblichen Polymerisationsparameter aufgezeichnet, und die Ergebnisse sind (als Mittelwerte von […]) in […] gibt die "Rate" die […]) des jeweiligen […] an. "DBC" ("double bond conversion"; in %) […] aus der Polymerisationswä[…] an polymerisierten Doppelbindungen, bezogen auf die […], und "tmax" ist die bis zum Erreichen des […]. bis zur […]) erforderliche Zeit (in s). Zusätzlich sind der Gehalt der jeweiligen Verbindung in HDDA in Gew.-% und in Mol-% sowie der Gehalt an Acrylimidogruppen in Mol-% angegeben. Tabelle 1

A short description of test [2]: Test under self-initiation: irradiation and polymerisation in bulk without additional initiator. Further details: Rate: unit not given here. The conditions noted are these: for DBC / Rate / tmax: 100 wt-% compound, in bulk, no additional initiator; for Polymerisationsraten in Substanz gegenüber Verwendung als Initiatoren für HDDA (Faktor): ratio of rate in bulk to rate of the same compound as initiator in HDDA.

Test [3] is described as follows: Preliminary tests of the inventors on di(meth)acrylated carboxamides (reactivity / initiator properties). An excerpt:
Da sich in der Literatur keine Hinweise auf derartige Eigenschaften von Di(meth)-acrylamiden fanden, zielten Vorversuche der Erfinder auf Triacylamide ab, in denen zwei der Acylgruppen (Meth)acrylgruppen waren.

The values below come from EP1956033A1, “Acrylimides with initiator characteristics” (Mondi Release Liner Austria GmbH, priority 2007, dated 2008).

For the molecule `C=CC(=O)N(CCCCCC)C(=O)C=C` [[13], N-Hexylacrylimid], in test [1], the DBC is 80,2%, the Rate is reported as 28,5 10^3 mol/l.s and the tmax is 159,9 s. Besides, in test [2], the DBC was 92,7%, the Rate is reported as 170,0 and the tmax is given as 21,3 s.

For `C=CC(=O)N(CCN(CC)CC)C(=O)C=C` [[15], N-(2-Diethylaminoethyl)acrylimid], in test [1], the DBC is given as 80,2%, the Rate was 27,7 10^3 mol/l.s and the tmax is listed as 160,8 s. In test [2], the DBC is given as 90,3%, the Rate is listed as 167,4 and the tmax is on record as 20,9 s.

`C=CC(=O)N(CCCCCCN(C(=O)C=C)C(=O)C=C)C(=O)C=C` [[16], N,N'-(1,6-Hexylen)bisacrylimid]: in test [1], the DBC is given as 75,7%, the Rate is 20,6 10^3 mol/l.s and the tmax is listed as 162,4 s.

Consider `C=CC(=O)N(CCN(CCN(C(=O)C=C)C(=O)C=C)CCN(C(=O)C=C)C(=O)C=C)C(=O)C=C` [[22], Tris(2-acrylimidoethyl)amin], for which, in test [1], the DBC is recorded as 72,4%, the Rate was 17,8 10^3 mol/l.s and the tmax was 182,2 s. Also, in test [2], the DBC is 73,5%, the Rate is listed as 38,1, the tmax is 16,8 s and the “Polymerisationsraten in Substanz gegenüber Verwendung als Initiatoren für HDDA (Faktor)” value (shortened to “Polymerisationsraten”) was approximately 2.

As to `C=CC(=O)N(CC(CC)CCCC)C(=O)C=C` (stereo not drawn) [[14], N-2-Ethylhexylacrylimid], in test [1], the DBC is listed as 80,9%, the Rate was 28,3 10^3 mol/l.s and the tmax was 157,1 s. Further, in test [2], the DBC is 89,1%, the Rate was 164,8 and the tmax is reported as 21,8 s.

Consider `C=CC(=O)N(CCOCCOCCN(C(=O)C=C)C(=O)C=C)C(=O)C=C` [[20], N,N'-(3,6-Dioxa-1,8-octylen)bisacrylimid], for which, in test [1], the DBC is 74,8%, the Rate is on record as 21,2 10^3 mol/l.s and the tmax was 171,2 s.

`C=CC(=O)N(CCC)C(=O)C=C` [[12], N-Propylacrylimid]: in test [1], the DBC is reported as 82,6%, the Rate was 29,8 10^3 mol/l.s and the tmax is on record as 159,6 s. In test [2], the DBC is recorded as 95,2%, the Rate is 196,3 and the tmax is listed as 20,4 s.

With `C=CC(=O)N(CCC[Si](C)(C)O[Si](C)(C)CCCN(C(=O)C=C)C(=O)C=C)C(=O)C=C` [[21], N,N'-(4,6-Disila-5-oxa-4,4,6,6-tetramethyl-1,9-nonylen)bisacrylimid], in test [1], the DBC is recorded as 78,2%, the Rate is on record as 23,4 10^3 mol/l.s and the tmax was 153,0 s. Further, in test [2], the DBC is given as 80,2%, the tmax is 19,2 s and the “Polymerisationsraten” value was approximately 2.

As for `C=CC(=O)N(CCC(C)(C)CC(C)CN(C(=O)C=C)C(=O)C=C)C(=O)C=C` (stereo not drawn) [[17], N,N'-(2,4,4-Trimethyl-1,6-hexylen)bisacrylimid], in test [1], the DBC is given as 75,3%, the Rate is listed as 20,2 10^3 mol/l.s and the tmax is given as 165,0 s. In addition, in test [2], the DBC is on record as 78,9%, the Rate is listed as 42,6, the tmax is reported as 19,5 s and the “Polymerisationsraten” value is recorded as approximately 2.

As for `C=CC(=O)N(CCCCCCCCCCCCN(C(=O)C=C)C(=O)C=C)C(=O)C=C` [[19], N,N'-(1,12-Dodecylen)bisacrylimid], in test [1], the DBC was 76,8%, the Rate is listed as 20,9 10^3 mol/l.s and the tmax is reported as 163,9 s.

In the case of Diacrylpropionamid, in test [3], the “Reaktivität / Initiatoreigenschaften” value is “mäßig reaktive Monomere ohne Initiatoreigenschaften”.

In the case of `C=CC(=O)N(CC1CCCC(CN(C(=O)C=C)C(=O)C=C)C1)C(=O)C=C` (stereo not drawn) [[18], N,N'-(1,3-Cyclohexylendimethylen)bisacrylimid], in test [1], the DBC was 73,6%, the Rate was 19,1 10^3 mol/l.s and the tmax is recorded as 167,5 s.
